Legend:
[1] = tested on: WRN RNA transcript and protein; assay: Reactivation of WRN expression in WRN-hypermethylated cancer cell lines (RT-PCR, western blot, immunofluorescence); assay type: cell-based, human; conditions: HCT-116, COLO-205, MDA-MB-231 and U937 cell lines; 1 μM for 3 days
Procedure: (§1) The eleven human cancer cell lines examined in this study were obtained from the American Type Culture Collection (ATCC) (Rockland, Md., USA) and the German Collection of Microorganisms and Cell Cultures (DSMZ, Braunschweig, Germany). The cell lines represented three different types of malignancies, colon (HCT-116, COLO-205), breast (MCF-7, MDA-MB-468, MDAMB-231) and leukaemia (HL-60, KG1a, U937, REH, Jurkat, K562). Cell lines were maintained in appropriate media and treated with 1 μM 5-aza-2′-deoxycytidine (Sigma) for 3 days to achieve demethylation, as previously described (Herman et al., 1998; Ropero et al., 2004). WS−/− cells (AG11395) were obtained from the Coriel Cell Repositories (Camden, N.J., USA). The collection of primary tumor samples analyzed has been described elsewhere (Esteller et al., 2001; Ropero et al., 2004).
RNA was isolated using TRIzol (Life Technologies, Gaithersburg, Md., USA). 2 μg of RNA was reverse-transcribed using SuperScript II reverse transcriptase (Gibco/BRL) and amplified using specific primers for WRN (forward: 5′-GCATGTGTTCGGAAGAGTGTTT-3-(SEQ ID. NO: 6), reverse: 5′-TGACATGGAAGAAACGTGGAA-3 (SEQ ID. NO: 7)) and for GAPDH. […] Cell lysates for protein analysis were prepared and analyzed by western blotting using the WRN antibody ab200 (Rabbit Polyclonal, Abcam). […]

[2] = tested on: WRN-associated exonuclease activity in U937 cells; assay: Exonuclease activity assay in WRN-immunoprecipitated cell extracts; assay type: cell-based, human; conditions: 1 μM for 3 days
Procedure: as §1
The exonuclease enzymatic activity was measured as previously described (Brosh et al., 2001). […] The digestion products of these reactions were separated on 15% denaturing polyacrylamide gels, visualized using a PhosphorImager (Molecular Dynamics), and quantitated using ImageQuant software (Molecular Dynamics).

[3] = tested on: MCF-7 cells (unmethylated WRN promoter); assay: Apoptosis by flow cytometry; assay type: cell-based, human; conditions: MCF-7, WRN unmethylated
Procedure: (§2) The percentage of apoptotic cells was determined by flow cytometry using Vybrant® Apoptosis Assay Kit #4-YO-PRO®-1/propidium iodide (Molecular Probes/Invitrogen). Briefly, cells were washed twice with ice cold PBS and resuspended in PBS containing YO-PRO®-1/propidium iodide. Apoptotic cells were identified by flow cytometry after 20 min of incubation. Cytogenetic assay was performed as previously described (Herranz et al., 2006) analyzing one-hundred metaphases for each experimental condition.

[4] = tested on: MDA-MB-231 cells (WRN promoter hypermethylation); assay: Apoptosis by flow cytometry; assay type: cell-based, human; conditions: MDA-MB-231, WRN hypermethylated; increasing concentrations
Procedure: as §2

[5] = tested on: U937 cells (WRN promoter hypermethylation); assay: Apoptosis by flow cytometry; assay type: cell-based, human; conditions: U937, WRN hypermethylated; increasing concentrations
Procedure: as §2

[6] = tested on: lymphoblastoid cell line from a WS patient (WS-/-); assay: Apoptosis by flow cytometry; assay type: cell-based, human; conditions: WS patient lymphoblastoid cells, positive control
Procedure: as §1, §2

[7] = tested on: WRN-transfected MDA-MB-231 cells; assay: Apoptosis by flow cytometry; assay type: cell-based, human; conditions: MDA-MB-231 transfected with WRN
Procedure: as §2
(§3) The WRN coding sequence corresponding to the cDNA from a BLCL lymphoblastoid-EBV immortalized cell line was amplified by PCR and directly cloned into the pGEM-T Easy Vector (Promega, Winsconsin USA). The WRN insert was subcloned into the pEGFP-N1 expression vector (Invitrogen) and confirmed by sequencing. For transfection experiments we used the pEGFP-N1 vector containing the WRN gene, or the pEGFP-N1 empty vector. Transfection of MDA-MB-231 and U937 cells was performed by electroporating […] in 0.8 ml PBS with 40 μg of the vector at 250 V and 975 μF. After electroporation, cells were washed with PBS and seeded with 10^6 cells/ml in fresh medium containing 20% FBS. Transfected cells were selected by the addition of G418 (600 μg/ml).

[8] = tested on: WRN-transfected U937 cells; assay: Apoptosis by flow cytometry; assay type: cell-based, human; conditions: U937 transfected with WRN
Procedure: as §2, §3

[9] = tested on: lymphoblastoid cells from a WS patient; assay: Cytogenetic chromosomal breakage analysis; assay type: cell-based, human; conditions: metaphases
Procedure: as §1, §2

[10] = tested on: HL60 cells (unmethylated WRN promoter); assay: Cytogenetic chromosomal breakage analysis; assay type: cell-based, human; conditions: metaphases
Procedure: as §2

[11] = tested on: MCF-7 cells (unmethylated WRN promoter); assay: Cytogenetic chromosomal breakage analysis; assay type: cell-based, human; conditions: MCF-7, WRN unmethylated; metaphases
Procedure: as §2

[12] = tested on: MDA-MB-231 cells (WRN aberrant methylation); assay: Cytogenetic chromosomal breakage analysis; assay type: cell-based, human
Procedure: as §2

[13] = tested on: WRN-transfected MDA-MB-231 cells; assay: Cytogenetic chromosomal breakage analysis; assay type: cell-based, human; design: dose or concentration left out as unconfirmed
Procedure: as §2, §3

[14] = tested on: primary colorectal tumors; assay: Overall survival of colorectal cancer patients treated with irinotecan, by WRN methylation status (Kaplan-Meier); assay type: in vivo, human; conditions: WRN methylated colon tumors (n=45)
Procedure: Contingency tables were analyzed by Fisher's exact test. Overall survival curves were estimated by the Kaplan-Meier method and were compared with the use of the log-rank test. All statistical analyses were performed using the SPSS version 10.1 program (SPSS Inc, Chicago, Ill.).

Structure (SMILES)	induction of apoptosis [3]	induction of apoptosis [4]	induction of apoptosis [5]	induction of apoptosis [6]	induction of apoptosis [7]	induction of apoptosis [8]	also measured
Nc1ncn([C@H]2C[C@H](O)[C@@H](CO)O2)c(=O)n1 [5-aza-2′-deoxycytidine]	–	–	–	–	–	–	expression of WRN RNA transcript and protein [1]: restored the expression; WRN-associated exonuclease activity [2]: significant increase
CC[C@@]1(O)C(=O)OCc2c1cc1n(c2=O)Cc2cc3ccccc3nc2-1 [camptothecin]	markedly resistant	optimal inductors of apoptosis	optimal inductors of apoptosis	same phenomena	resistant to the apoptosis	resistant to the apoptosis	chromosomal breakage [9]: extremely sensitive; chromosomal breakage [10]: minimal chromosomal breakage; chromosomal breakage [11]: minimal chromosomal breakage; chromosomal breakage ([12]; MDA-MB-231, WRN methylated, metaphases): extremely sensitive; chromosomal breakage ([13]; MDA-MB-231 transfected with WRN, metaphases): acquired a resistance
CCc1c2c(nc3ccc(OC(=O)N4CCC(N5CCCCC5)CC4)cc13)-c1cc3c(c(=O)n1C2)COC(=O)[C@]3(O)CC [irinotecan]	–	–	–	–	–	–	median time to the death of the patient [14]: 39.4 months
CO[C@@]12[C@H](COC(N)=O)C3=C(C(=O)C(C)=C(N)C3=O)N1C[C@@H]1N[C@@H]12 [mitomycin C]	markedly resistant	optimal inductors of apoptosis	optimal inductors of apoptosis	same phenomena	resistant to the apoptosis	resistant to the apoptosis	chromosomal breakage ([12]; MDA-MB-231 (empty vector), 50 mg/ml): massive breakage; chromosomal breakage ([13]; MDA-MB-231 transfected with the WRN gene): resistance to the genome damage

Source: US20090047214A1, “Novel methylation marker” (OncoMethylome Sciences S.A., priority 2006, published 2009)
